The text below walks through data of patent publication US9371519B2, “Complex type sugar chain hydrolase” (National Institute of Advanced Industrial Science and …, priority 2011, dated 2016).

Assay [1] addresses T1, Ogataea minuta endo-β-N-acetylglucosaminidase Endo-Om, wild type (recombinant, purified), SEQ ID NO: 1 (Ogataea minuta, UniProt R4WHQ8).
T1 sequence (R4WHQ8 1-772): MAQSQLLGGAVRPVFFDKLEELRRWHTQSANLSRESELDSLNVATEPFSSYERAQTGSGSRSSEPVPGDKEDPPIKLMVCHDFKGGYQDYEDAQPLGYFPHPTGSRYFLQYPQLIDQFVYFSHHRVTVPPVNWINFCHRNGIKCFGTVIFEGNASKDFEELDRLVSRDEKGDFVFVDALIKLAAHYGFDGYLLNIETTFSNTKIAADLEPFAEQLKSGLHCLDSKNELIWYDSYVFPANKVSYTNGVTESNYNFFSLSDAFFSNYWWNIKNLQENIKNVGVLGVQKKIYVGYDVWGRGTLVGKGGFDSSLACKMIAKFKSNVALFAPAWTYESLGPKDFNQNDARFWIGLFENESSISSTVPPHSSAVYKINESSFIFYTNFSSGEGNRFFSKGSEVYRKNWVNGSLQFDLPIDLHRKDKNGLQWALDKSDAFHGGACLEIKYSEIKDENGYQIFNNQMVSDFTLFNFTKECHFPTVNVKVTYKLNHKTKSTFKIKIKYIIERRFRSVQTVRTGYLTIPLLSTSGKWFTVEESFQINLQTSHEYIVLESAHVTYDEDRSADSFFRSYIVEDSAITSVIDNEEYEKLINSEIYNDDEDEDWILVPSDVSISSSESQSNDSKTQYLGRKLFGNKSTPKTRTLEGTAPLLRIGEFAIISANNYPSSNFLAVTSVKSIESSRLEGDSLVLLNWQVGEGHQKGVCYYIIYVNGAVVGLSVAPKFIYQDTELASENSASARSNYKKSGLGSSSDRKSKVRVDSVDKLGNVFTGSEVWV
The assay can be described thus: Km and Vmax for NGA2-Asn-Fmoc hydrolysis, purified Endo-Om (HPLC). The format is biochemical. Here is the method: (§1) The enzyme activity was measured as follows. A reaction solution (total volume: 10 μl) containing 100 mM of a sodium acetate buffer (pH 5.3) at the final concentration, 0.5 M NaCl, 10 μM of a Fmoc-labeled biantennary complex type sugar chain (NGA2-Asn-Fmoc), and an Endo-Om crude enzyme solution was incubated at 50° C. for 1 hour, and heated at 95° C. for 5 minutes, thereby stopping the enzyme reaction. The reaction solution was subjected to HPLC, and the enzymatic activity was calculated from the peak area ratio between the NGA2-Asn-Fmoc as the substrate and its hydrolysate. The column was Asahipak NH2P-50 4E (4.6.250 mm, Shodex), and the solvents were acetonitrile (solvent A) and 200 mM of TEAA (pH 7.0, GLEN RESEARCH: solvent B). Isocratic elution was carried out at a flow rate of 1.0 ml/min, and the solvent B: 43%, and detection was carried out using a fluorescence detector (excitation wavelength 265 nm, and fluorescence wavelength 315 nm). The activity hydrolyzing 1 vol of NGA2-Asn-Fmoc in 1 minute under the above-described reaction conditions was defined as 1 Unit of the enzymatic activity of Endo-Om.
The properties of Endo-Om were studied using a purified enzyme solution. According to the method described in Example 4, the Endo-Om crude enzyme solution prepared from 100 ml culture was substituted with an equilibration buffer (20 mM sodium phosphate buffer (pH 7.4), 0.5 M NaCl, 0.5 mM PMSF, 50 mM imidazole) by dialysis. […] According to the method described in Example 4, the activity of the Endo-Om purified enzyme solution when the substrate concentration was 1 mM was measured, and the specific activity was calculated. In addition, activity measurement was carried out using NGA2-Asn-Fmoc at different concentrations as the substrates, and Km and Vmax were calculated. For comparison, the specific activity, Km, and Vmax of the commercially available Endo-M were calculated by the same method. […]

Assay [2] concerns the target T2, Mucor hiemalis endo-β-N-acetylglucosaminidase Endo-M (commercially available) (Mucor hiemalis, UniProt Q9C1S6).
T2 sequence (Q9C1S6 1-744): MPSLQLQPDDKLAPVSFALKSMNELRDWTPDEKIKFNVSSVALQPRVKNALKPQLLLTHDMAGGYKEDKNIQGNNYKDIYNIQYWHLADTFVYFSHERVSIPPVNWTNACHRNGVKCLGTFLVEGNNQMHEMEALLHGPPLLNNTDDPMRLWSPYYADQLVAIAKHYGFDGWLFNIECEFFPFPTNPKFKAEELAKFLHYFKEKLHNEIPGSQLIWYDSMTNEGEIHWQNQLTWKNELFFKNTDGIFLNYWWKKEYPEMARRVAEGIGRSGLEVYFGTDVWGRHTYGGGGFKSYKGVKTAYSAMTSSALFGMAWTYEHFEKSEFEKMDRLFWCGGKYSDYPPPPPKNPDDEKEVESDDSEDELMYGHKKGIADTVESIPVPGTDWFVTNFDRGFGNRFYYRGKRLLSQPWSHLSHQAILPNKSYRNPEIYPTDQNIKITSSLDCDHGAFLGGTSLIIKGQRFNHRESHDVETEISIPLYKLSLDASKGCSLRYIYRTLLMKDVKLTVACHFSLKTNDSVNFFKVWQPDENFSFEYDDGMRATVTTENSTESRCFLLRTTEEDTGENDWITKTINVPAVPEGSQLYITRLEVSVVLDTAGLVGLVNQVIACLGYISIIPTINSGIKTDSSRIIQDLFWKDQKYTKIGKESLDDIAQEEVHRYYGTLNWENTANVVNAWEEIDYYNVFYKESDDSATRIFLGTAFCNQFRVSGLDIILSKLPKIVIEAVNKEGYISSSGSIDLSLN
The assay can be described thus: Km and Vmax for NGA2-Asn-Fmoc hydrolysis, commercially available Endo-M (HPLC). The format is biochemical. The note with it: sodium acetate pH 6.0, 0.5 M NaCl, 50° C. Here is the method:
as §1, with “The column was Asahipak NH2P-50 4E (4.6.250 mm, Shodex), and the solvents were acetonitrile (solvent A) and 200 mM of TEAA (pH 7.0, GLEN RESEARCH: solvent B).” left out, “The activity hydrolyzing 1 vol of NGA2-Asn-Fmoc in 1 minute under the above-described reaction conditions was defined as 1 Unit of the enzymatic activity of Endo-Om.” left out
The properties of Endo-Om were studied using a purified enzyme solution. […] According to the method described in Example 4, the activity of the Endo-Om purified enzyme solution when the substrate concentration was 1 mM was measured, and the specific activity was calculated. In addition, activity measurement was carried out using NGA2-Asn-Fmoc at different concentrations as the substrates, and Km and Vmax were calculated. For comparison, the specific activity, Km, and Vmax of the commercially available Endo-M were calculated by the same method. […]

Each structure is given as a SMILES string.

With `CC(=O)N[C@@H]1[C@@H](O)[C@H](O[C@@H]2O[C@H](CO)[C@@H](O[C@@H]3O[C@H](CO[C@H]4O[C@H](CO)[C@@H](O)[C@H](O)[C@@H]4O[C@@H]4O[C@H](CO)[C@@H](O)[C@H](O)[C@H]4NC(C)=O)[C@@H](O)[C@H](O[C@H]4O[C@H](CO)[C@@H](O)[C@H](O)[C@@H]4O[C@@H]4O[C@H](CO)[C@@H](O)[C@H](O)[C@H]4NC(C)=O)[C@@H]3O)[C@H](O)[C@H]2NC(C)=O)[C@@H](CO)O[C@H]1NC(=O)C[C@H](NC(=O)OCC1c2ccccc2-c2ccccc21)C(=O)O` [NGA2-Asn-Fmoc], the Km in assay [1] (Endo-Om, sodium acetate pH 5.3, 0.5 M NaCl, 50° C., NGA2-Asn-Fmoc at different concentrations) amounted to 5.54 mM. Further, the maximal velocity (Vmax) was 3.88 µmol/min/mg in assay [1] (Endo-Om, sodium acetate pH 5.3, 0.5 M NaCl, 50° C., unit as printed in b33 and b95); 0.070 µmol/min/mg in assay [2]. In assay [1] (ratio Endo-Om / Endo-M), the “Vmax of Endo-Om relative to Vmax of Endo-M” value worked out at 55 times.
